Measurements from ChEMBL document CHEMBL1152405, “Bis-anthracenyl isoxazolyl amides have enhanced anticancer activity” (Bioorg Med Chem Lett, 2009).

Key:
Assay type in all cases: functional
Set-up in all cases: scale not given: the % may be the effect or the level left
NCI-H322M = test: Growth inhibition of human NCI-H322M cells at 10 uM after 24 hrs by MTT assay relative to control
CAKI-1 = test: Growth inhibition of human Caki1 cells at 10 uM after 24 hrs by MTT assay relative to control
KM12 = test: Growth inhibition of human KM12 cells at 10 uM after 24 hrs by MTT assay relative to control
HCT-15 = test: Growth inhibition of human HCT15 cells at 10 uM after 24 hrs by MTT assay relative to control
SF-539 = test: Growth inhibition of human SF539 cells at 10 uM after 24 hrs by MTT assay relative to control
OVCAR-5 = test: Growth inhibition of human OVCAR5 cells at 10 uM after 24 hrs by MTT assay relative to control
SR = test: Growth inhibition of human SR cells at 10 uM after 24 hrs by MTT assay relative to control
UACC-62 = test: Growth inhibition of human UACC62 cells at 10 uM after 24 hrs by MTT assay relative to control
[1] = Growth inhibition of human […] cells at 10 uM after 24 hrs by MTT assay relative to control
T47D = test: Growth inhibition of human T47D cells at 10 uM after 24 hrs by MTT assay relative to control
OVCAR-8 = test: Growth inhibition of human OVCAR8 cells at 10 uM after 24 hrs by MTT assay relative to control
MDA-MB-231 = test: Growth inhibition of human MDA-MB-231 cells at 10 uM after 24 hrs by MTT assay relative to control
[2] = Growth inhibition of human Hs 578T cells at 10 uM after 24 hrs by MTT assay relative to control
MOLT-4 = test: Growth inhibition of human MOLT4 cells at 10 uM after 24 hrs by MTT assay relative to control
HCT-116 = test: Growth inhibition of human HCT116 cells at 10 uM after 24 hrs by MTT assay relative to control
SW-620 = test: Growth inhibition of human SW620 cells at 10 uM after 24 hrs by MTT assay relative to control
HL-60(TB) = test: Growth inhibition of human HL-60(TB) cells at 10 uM after 24 hrs by MTT assay relative to control
Malme-3M = test: Growth inhibition of human MALME-3M cells at 10 uM after 24 hrs by MTT assay relative to control
HT-29 = test: Growth inhibition of human HT-29 cells at 10 uM after 24 hrs by MTT assay relative to control
786-0 = test: Growth inhibition of human 786-0 cells at 10 uM after 24 hrs by MTT assay relative to control
SF-268 = test: Growth inhibition of human SF268 cells at 10 uM after 24 hrs by MTT assay relative to control
HOP-62 = test: Growth inhibition of human HOP62 cells at 10 uM after 24 hrs by MTT assay relative to control
MDA-MB-435 = test: Growth inhibition of human MDA-MB-435 cells at 10 uM after 24 hrs by MTT assay relative to control
MCF7 = test: Growth inhibition of human MCF7 cells at 10 uM after 24 hrs by MTT assay relative to control
NCI-H522 = test: Growth inhibition of human NCI-H522 cells at 10 uM after 24 hrs by MTT assay relative to control
UACC-257 = test: Growth inhibition of human UACC257 cells at 10 uM after 24 hrs by MTT assay relative to control
EKVX = test: Growth inhibition of human EKVX cells at 10 uM after 24 hrs by MTT assay relative to control
SF-295 = test: Growth inhibition of human SF295 cells at 10 uM after 24 hrs by MTT assay relative to control
SK-OV-3 = test: Growth inhibition of human SKOV3 cells at 10 uM after 24 hrs by MTT assay relative to control

For `Cc1onc(-c2c3ccccc3c(Cl)c3ccccc23)c1C(=O)Nc1cc(C(=O)NCCCNC(=O)c2cc(NC(=O)c3c(-c4c5ccccc5c(Cl)c5ccccc45)noc3C)cn2C)n(C)c1`, the Activity (NCI-H322M) was 105.3%, the Activity (CAKI-1) was 71.63% and the Activity (KM12) was 96.11%. It also gave an Activity (HCT-15) of 102.58%, an Activity (SF-539) of 91.99% and an Activity (OVCAR-5) of 95.22%. The Activity (SR) was 87.99%, the Activity (UACC-62) was 76.22% and the Activity [1] was 78.11%. For the same molecule, the Activity (T47D) was 76.21%, the Activity (OVCAR-8) was 88.63% and the Activity (MDA-MB-231) was 86.9%. For the same molecule, the Activity [2] was 88.87%, the Activity (MOLT-4) was 91.53% and the Activity (HCT-116) was 88.45%. For the same molecule, the Activity (SW-620) was 109.27%, the Activity (HL-60(TB)) was 160.8% and the Activity (Malme-3M) was 94.79%. The Activity (HT-29) was 93.17%, the Activity (786-0) was 81.38% and the Activity (SF-268) was 72.67%. The Activity (HOP-62) was 87.7%, the Activity (MDA-MB-435) was 85.56% and the Activity (MCF7) was 94.12%. The Activity (NCI-H522) was 76.93%, the Activity (UACC-257) was 86.93% and the Activity (EKVX) was 92.34%. The Activity (SF-295) was 109.86% and the Activity (SK-OV-3) was 100.87%.
